Each structure is given as a SMILES string. Like-named read-outs stand apart in the source and are kept apart here.

The results in this text go back to paper PMC12446627, “Novel Thioredoxin reductase 1 inhibitor BS1801 relieves treatment resistance and triggers endoplasmic reticulum stress by elevating reactive oxygen species in glioma” (Redox Biology, 2025).

The target of assay [1] is T1, Thioredoxin reductase 1 (TrxR1) (Homo sapiens, UniProt Q16881).
T1 construct: gene TXNRD1
The assay is described as follows: biochemical.

Assay [2] deals with T1, Thioredoxin reductase 1 (TrxR1).

T1 sequence (Q16881 whole entry): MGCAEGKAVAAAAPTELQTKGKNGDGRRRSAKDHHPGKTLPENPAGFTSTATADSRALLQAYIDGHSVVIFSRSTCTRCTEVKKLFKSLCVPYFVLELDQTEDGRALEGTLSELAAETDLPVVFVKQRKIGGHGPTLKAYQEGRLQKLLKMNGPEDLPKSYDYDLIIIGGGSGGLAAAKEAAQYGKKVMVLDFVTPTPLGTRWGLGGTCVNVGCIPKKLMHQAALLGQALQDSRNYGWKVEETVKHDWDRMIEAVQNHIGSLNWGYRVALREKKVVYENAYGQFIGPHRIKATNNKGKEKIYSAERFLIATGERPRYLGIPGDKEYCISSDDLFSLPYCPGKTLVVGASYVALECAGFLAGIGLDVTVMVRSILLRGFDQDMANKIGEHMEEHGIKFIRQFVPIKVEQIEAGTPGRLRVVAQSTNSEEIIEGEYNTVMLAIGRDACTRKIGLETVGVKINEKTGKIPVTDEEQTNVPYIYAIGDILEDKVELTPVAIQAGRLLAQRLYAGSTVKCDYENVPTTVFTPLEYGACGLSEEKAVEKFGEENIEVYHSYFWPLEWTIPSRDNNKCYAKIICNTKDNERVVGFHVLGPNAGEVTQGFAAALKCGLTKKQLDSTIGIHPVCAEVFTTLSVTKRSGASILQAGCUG

By Kd is commonly meant the concentration at which binding is half-saturated. High values mean weaker binding, low ones tighter binding. `O=c1c2ccccc2[se]n1CCCCn1[se]c2ccccc2c1=O` [BS1801, 2,2'-(butane-1,4-diyl)bis(benzo[d] [1,2]selenazol-3(2H)-one)] had a Kd in assay [1] of 2.44 µM.
`CC[P](CC)(CC)=[Au][S][C@@H]1O[C@H](COC(C)=O)[C@@H](OC(C)=O)[C@H](OC(C)=O)[C@H]1OC(C)=O` [auranofin] returned a Kd in assay [2] of 5.07 µM.
